Our source for the LC retention time values is the RepoRT retention time repository.

Molecules are shown by their SMILES.

This data set is described as follows: HILIC, Waters ACQUITY UPLC BEH Amide, 100 × 2.1 mm, 1.7 µm; A: water + 0.125% formic acid + 10 mM ammonium formate; B: 5% water + 95% acetonitrile + 0.125% formic acid + 10 mM ammonium formate; gradient (min/%B) 0/100 2/100 7.7/70 9.5/40 10.25/30 12.75/100 17/100. As to conditions: stereoisomer not certain.
For the compound `NCCc1cnc[nH]1` [Histamine], the LC retention time was 8.29 min.

Take `NC(Cc1cnc[nH]1)C(=O)O` (stereo unspecified) [Histidine]: the LC retention time turned out to be 9.48 min.

With `NC(N)=NCCCCC(N)C(=O)O` (stereo unspecified) [Homoarginine], the LC retention time came to 9.34 min.

`NC(CCS)C(=O)O` (stereo unspecified) [Homocysteine]: the LC retention time came to 9.58 min.

`NC(CCSSCCC(N)C(=O)O)C(=O)O` (stereo unspecified) [Homocystine]: the LC retention time came to 9.58 min.

As for `COC(=O)CC(O)(CCCC(C)(C)O)C(=O)OC1C(OC)=CC23CCCN2CCc2cc4c(cc2C13)OCO4` (stereo unspecified) [Homoharringtonine], the LC retention time came to 3.24 min.

For `NC(CCO)C(=O)O` (stereo unspecified) [Homoserine], the LC retention time was found to be 8.29 min.

Regarding `COc1ccc(CCN)cc1OC` [Homoveratrylamine], the LC retention time is 4.78 min.

For the compound `CC=C1C2C=C(C)CC1(N)c1ccc(=O)[nH]c1C2` (stereo unspecified) [Huperzine], the LC retention time was 5.74 min.

Consider `O=C(O)CCc1ccccc1` [Hydrocinnamic acid], for which the LC retention time amounted to 8.71 min.

Take `COc1ccc2c3c1OC1C(=O)CCC4C(C2)N(C)CCC314` (stereo unspecified) [Hydrocodone]: the LC retention time came out at 3.8 min.

Consider `CC12CCC(=O)C=C1CCC1C2C(O)CC2(C)C1CCC2(O)C(=O)CO` (stereo unspecified) [Hydrocortisone], for which the LC retention time was 2.56 min.

For `CN1CCC23c4c5ccc(O)c4OC2C(=O)CCC3C1C5` (stereo unspecified) [Hydromorphone], the LC retention time is 5.22 min.

For the compound `O=C(O)C1CC(O)CN1` (stereo unspecified) [Hydroxyproline], the LC retention time turned out to be 8.14 min.

As to `O=c1[nH]cnc2nc[nH]c12` [Hypoxanthine], the LC retention time came out at 4.99 min.

With `COc1ccc(-c2oc3c(CC=C(C)C)c(OC4OC(CO)C(O)C(O)C4O)cc(O)c3c(=O)c2OC2OC(C)C(O)C(O)C2O)cc1` (stereo unspecified) [Icarin], the LC retention time came out at 4.74 min.

Turning to `CC(=O)C1(O)Cc2c(O)c3c(c(O)c2C(OC2CC(N)C(O)C(C)O2)C1)C(=O)c1ccccc1C3=O` (stereo unspecified) [Idarubicin], the LC retention time came out at 5.42 min.

In the case of `COC1=C(OC)C(=O)C(CCCCCCCCCCO)=C(C)C1=O` [Idebenone], the LC retention time was found to be 0.96 min.

On to `CC(C(O)c1ccc(O)cc1)N1CCC(Cc2ccccc2)CC1` (stereo unspecified) [Ifenprodil], for which the LC retention time was 3.17 min.

In the case of `Cc1ccc(NC(=O)c2ccc(CN3CCN(C)CC3)cc2)cc1Nc1nccc(-c2cccnc2)n1` [Imatinib], the LC retention time stood at 5.36 min.

With `c1c[nH]cn1` [Imidazole], the LC retention time amounted to 4.53 min.

On to `O=C1C(c2c(O)[nH]c3ccccc23)=Nc2ccccc21` [Indarubicin], for which the LC retention time was found to be 1.07 min.

With `CNC1CC(c2ccc(Cl)c(Cl)c2)c2ccccc21` (stereo unspecified) [Indatraline], the LC retention time was found to be 2.88 min.

Consider `CC(C)(C)NC(=O)C1CN(Cc2cccnc2)CCN1CC(O)CC(Cc1ccccc1)C(=O)NC1c2ccccc2CC1O` (stereo unspecified) [Indinavir], for which the LC retention time was 2.17 min.

On to `NC(=O)Cc1c[nH]c2ccccc12` [Indole-3-acetamide], for which the LC retention time was found to be 1.36 min.

On to `OCc1c[nH]c2ccccc12` [Indole-3-carbinol], for which the LC retention time was 1.24 min.

Turning to `O=Cc1c[nH]c2ccccc12` [Indole-3-carboxaldehyde], the LC retention time came to 1.16 min.

For `O=C(O)c1c[nH]c2ccccc12` [Indole-3-carboxylic acid], the LC retention time stood at 1.41 min.

As for `O=C(O)C(=O)Cc1c[nH]c2ccccc12` [Indole-3-pyruvic acid], the LC retention time was 5.11 min.

For `O=C(O)C(O)Cc1c[nH]c2ccccc12` (stereo unspecified) [Indolelactic acid], the LC retention time was 2.25 min.

With `COc1ccc2c(c1)c(CC(=O)O)c(C)n2C(=O)c1ccc(Cl)cc1` [Indomethacin], the LC retention time amounted to 1.08 min.

`O=c1[nH]cnc2c1ncn2C1OC(CO)C(O)C1O` (stereo unspecified) [Inosine]: the LC retention time was 6.19 min.

Regarding `Nc1c2c(nc3c1CCC3)CCCC2` [Ipidacrine], the LC retention time is 3.33 min.

As for `CC(C)Oc1ccc2c(=O)c(-c3ccccc3)coc2c1` [Ipriflavone], the LC retention time came to 0.94 min.

As for `CCCCC1=NC2(CCCC2)C(=O)N1Cc1ccc(-c2ccccc2-c2nn[nH]n2)cc1` [Irbesartan], the LC retention time is 1.16 min.

For the compound `CCc1c2c(nc3ccc(OC(=O)N4CCC(N5CCCCC5)CC4)cc13)-c1cc3c(c(=O)n1C2)COC(=O)C3(O)CC` (stereo unspecified) [Irinotecan], the LC retention time was 5.03 min.

For the compound `Nc1nc(N)nc(-c2cc(Cl)ccc2Cl)n1` [Irsogladine], the LC retention time is 1.25 min.

Turning to `CC(C)CN` [Isobutylamine], the LC retention time turned out to be 5.04 min.

For the compound `CC(C)C(=O)O` [Isobutyric acid], the LC retention time amounted to 1.77 min.

With `CCC(C)C(N)C(=O)O` (stereo unspecified) [Isoleucine], the LC retention time was 7.18 min.

On to `OCC1OC(OCC2OC(O)C(O)C(O)C2O)C(O)C(O)C1O` (stereo unspecified) [Isomaltose], for which the LC retention time worked out at 7.19 min.

As for `CC(C)=CCNc1ncnc2nc[nH]c12` [Isopentenyladenine], the LC retention time turned out to be 1.81 min.

As to `COc1cc(-c2oc3cc(O)cc(O)c3c(=O)c2OC2OC(COC3OC(C)C(O)C(O)C3O)C(O)C(O)C2O)ccc1O` (stereo unspecified) [Isorhamnetin-3-O-rutinoside], the LC retention time was found to be 6.02 min.

Regarding `COc1cc(-c2oc3cc(O)cc(O)c3c(=O)c2OC2OC(CO)C(O)C(O)C2O)ccc1O` (stereo unspecified) [Isorhamnetin-3-glucoside], the LC retention time was 4.49 min.

In the case of `CC(C)CC(=O)OC(CC(=O)[O-])C[N+](C)(C)C` [Isovaleryl-L-carnitine], the LC retention time came to 5.36 min.

With `Nc1nc2[nH]c(=O)cnc2c(=O)[nH]1` [Isoxanthopterin], the LC retention time was 6.41 min.

For `COC(=O)C1=C(C)NC(C)=C(C(=O)OC(C)C)C1c1cccc2nonc12` (stereo unspecified) [Isradipine], the LC retention time turned out to be 0.95 min.

In the case of `COc1ccc(C(=O)NCc2ccc(OCCN(C)C)cc2)cc1OC` [Itopride], the LC retention time is 3.65 min.

As to `CCC(C)n1ncn(-c2ccc(N3CCN(c4ccc(OCC5COC(Cn6cncn6)(c6ccc(Cl)cc6Cl)O5)cc4)CC3)cc2)c1=O` (stereo unspecified) [Itraconzaole], the LC retention time is 0.97 min.

With `CC1OC(OCC2OC(Oc3c(-c4ccc(O)cc4)oc4cc(O)cc(O)c4c3=O)C(O)C(O)C2O)C(O)C(O)C1O` (stereo unspecified) [Kaempferol-3-O-rutinoside], the LC retention time is 6.09 min.

For `O=c1c(O)c(-c2ccc(O)cc2)oc2cc(O)cc(O)c12` [Kaempferol], the LC retention time worked out at 1.4 min.

As for `CC(=O)N1CCN(c2ccc(OCC3COC(Cn4ccnc4)(c4ccc(Cl)cc4Cl)O3)cc2)CC1` (stereo unspecified) [Ketoconazole], the LC retention time worked out at 1.73 min.

Regarding `CC(C)C(=O)C(=O)O` [Ketoisovaleric acid], the LC retention time stood at 2.84 min.

Consider `CN1CCC(=C2c3ccccc3CC(=O)c3sccc32)CC1` [Ketotifen], for which the LC retention time was found to be 2.71 min.

As to `COC1C(O)CC(=O)OC(C)CC=CC=CC(O)C(C)CC(CC=O)C1OC1OC(C)C(OC2CC(C)(O)C(OC(=O)CC(C)C)C(C)O2)C(N(C)C)C1O` (stereo unspecified) [Kitasamycin], the LC retention time stood at 2.04 min.

For `O=C(O)c1cc(=O)c2ccccc2[nH]1` [Kynurenic acid], the LC retention time turned out to be 6.15 min.
